{"source": "patent US8440853B2", "about": "“Ester compound and use thereof” (Sumitomo Chemical Company, Limited, priority 2010, dated 2013)", "format_in_all_cases": "in vivo", "key": {"[1]": {"system": "common mosquitoes (Culex pipens pallens)", "assay": "Knock-down test, oil solution sprayed into glass chamber with common mosquitoes (Test Example 3)", "details": "adult female common mosquitoes, 0.00625% (w/v) oil solution sprayed into 70 cm cubic glass chamber", "experimental": "Zero point zero zero six two five(0.00625) part of the compound of the present invention (1) was dissolved in 10 parts of isopropyl alcohol, and the solution was mixed with 89.99375 parts of deodorized kerosene to prepare a 0.00625% (w/v) oil solution.\nTen adult female common mosquitoes (Culex pipens pallens) were released in a cubic glass chamber having each side of 70 cm. The oil solution of the compound of the present invention (1) was sprayed into the chamber through a small window on the side of the chamber using a spraying gun at a pressure of 0.9 kg/cm^2. Ten minutes after spraying, the number of knocked-down mosquitoes was counted and a knock-down ratio was determined. A knocked-down ratio was calculated by the following equation. Knocked-down ratio (%)=(Number of knocked-down mosquitoes/Number of test mosquitoes)×100"}, "[2]": {"system": "houseflies (Musca domestica)", "assay": "Knock-down test, oil solution sprayed into glass chamber with houseflies (Test Example 4)", "details": "adult houseflies, 0.00625% (w/v) oil solution, 0.7 ml sprayed into 70 cm cubic glass chamber", "experimental": "Zero point zero zero six two five(0.00625) part of the compound of the present invention (1), (3) and (4) was dissolved in 10 parts of isopropyl alcohol, and the solution was mixed with 89.99375 parts of deodorized kerosene to prepare a 0.00625% (w/v) oil solution.\nTen adult houseflies (Musca domestica) were released in a cubic glass chamber having each side of 70 cm, and 0.7 ml of the oil solution of the compound of the present invention (1), (3) and (4) was sprayed into the chamber through a small window on the side of the chamber using a spraying gun at a pressure of 0.9 kg/cm^2. Seven minutes after spraying, the number of knocked-down flies was counted and a knock-down ratio was determined. A knocked-down ratio was calculated by the following equation. Knocked-down ratio (%)=(Number of knocked-down flies/Number of test flies)×100"}, "[3]": {"system": "American cockroaches (Periplaneta Americana)", "assay": "Knock-down test, oil solution sprayed on American cockroaches (Test Example 1)", "details": "adult American cockroaches, 0.1% (w/v) oil solution, 1.5 ml sprayed", "experimental": "Zero point one (0.1) part of the compound of the present inventions (1) was dissolved in 10 parts of isopropyl alcohol and the solution was mixed with 89.9 parts of deodorized kerosene to prepare a 0.1% (w/v) oil solution.\nSix adult American cockroaches (Periplaneta Americana, 3 males and 3 females) were released in a test container (diameter 12.5 cm, 10 cm high, the bottom face is made of 16 mesh metallic wire), the inner face on which butter was applied, and the container was set at the bottom of a test chamber (bottom face: 46 cm×46 cm, height: 70 cm). One point five (1.5) ml of the oil solution of the compound of the present invention (1) was sprayed using a spray gun at a pressure of 0.4 kg/cm^2 from 60 cm higher than the upper face of the container. Thirty seconds after the spraying, the container was pulled out from the chamber. Ten minutes after spraying, the number of knocked-down cockroaches was counted and a knock-down ratio was determined (repeated twice). The knocked-down ratio was calculated by the following equation. Knocked-down ratio (%)=(Number of knocked-down cockroaches/Number of test cockroaches)×100"}, "[4]": {"system": "German cockroaches (Blattella germanica)", "assay": "Knock-down test, oil solution sprayed on German cockroaches (Test Example 2)", "details": "adult German cockroaches, 0.1% (w/v) oil solution, 1.5 ml sprayed", "experimental": "Zero point one (0.1) part of the compound of the present inventions (1), (2),(3) and (5) was dissolved in 10 parts of isopropyl alcohol and the solution was mixed with 89.9 parts of deodorized kerosene to prepare a 0.1% (w/v) oil solution.\nTen adult German cockroaches (Blattella germanica, 5 males and 5 females) were released in a test container (diameter 8.75 cm, 7.5 cm high, the bottom face is made of 16 mesh metallic wire), the inner face on which butter was applied, and the container was set at the bottom of a test chamber (bottom face: 46 cm×46 cm, height: 70 cm).\nEach 1.5 ml of the oil solution of the compound of the present invention (1), (2), (3) and (5) was sprayed using a spray gun at a pressure of 0.4 kg/cm^2 from 60 cm higher than the upper face of the container. Thirty seconds after the spraying, the container was pulled out from the chamber. Two minutes after spraying, the number of knocked-down cockroaches was counted and a knock-down ratio was determined (repeated once). A knocked-down ratio was calculated by the following equation. Knocked-down ratio (%)=(Number of knocked-down cockroaches/Number of test cockroaches)×100 The results (2 minutes after spraying) are shown in Table 2."}}, "data": [{"smiles": "COCc1c(F)c(F)c(COC(=O)[C@@H]2[C@@H](/C=C(\\C#N)SC)C2(C)C)c(F)c1F", "note": "[compound of the present invention (1), 4-methoxymethyl-2,3,5,6-tetrafluorobenzyl=(1R)-trans-3-[(1E)-2-cyano-2-(methylthio)ethenyl]-2,2-dimethylcyclopropane carboxylate]", "values": [{"measurement": "Knock-down ratio (%) 10 minutes after spraying", "setting": "[1]", "value": 94, "unit": "%"}, {"measurement": "Knock-down ratio (%) 7 minutes after spraying", "setting": "[2]", "value": 100, "unit": "%"}, {"measurement": "Knock-down ratio (%) 10 minutes after spraying", "setting": "[3]", "value": 100, "unit": "%"}, {"measurement": "Knock-down ratio (%) 2 minutes after spraying", "setting": "[4]", "value": 100, "unit": "%"}]}, {"smiles": "CCCCSC(C#N)=C[C@@H]1[C@@H](C(=O)OCc2c(F)c(F)c(COC)c(F)c2F)C1(C)C", "note": "[compound of the present invention (2), 4-methoxymethyl-2,3,5,6-tetrafluorobenzyl=(1R)-trans-3-[(1EZ)-2-cyano-2-(butylthio)ethenyl]-2,2-dimethylcyclopropane carboxylate]", "values": [{"measurement": "Knock-down ratio (%) 2 minutes after spraying", "setting": "[4]", "value": 100, "unit": "%"}]}, {"smiles": "CCSC(C#N)=C[C@@H]1[C@@H](C(=O)OCc2c(F)c(F)c(C)c(F)c2F)C1(C)C", "note": "(relative stereo) [compound of the present invention (5), 4-methyl-2,3,5,6-tetrafluorobenzyl=(1R)-trans-3-[(1EZ)-2-cyano-2-(ethylthio)ethenyl]-2,2-dimethylcyclopropane carboxylate]", "values": [{"measurement": "Knock-down ratio (%) 2 minutes after spraying", "setting": "[4]", "value": 100, "unit": "%"}]}, {"smiles": "CCSC(C#N)=C[C@@H]1[C@@H](C(=O)OCc2c(F)c(F)c(COC)c(F)c2F)C1(C)C", "note": "[compound of the present invention (3), 4-methoxymethyl-2,3,5,6-tetrafluorobenzyl=(1R)-trans-3-[(1EZ)-2-cyano-2-(ethylthio)ethenyl]-2,2-dimethylcyclopropane carboxylate]", "values": [{"measurement": "Knock-down ratio (%) 7 minutes after spraying", "setting": "[2]", "value": 95, "unit": "%"}, {"measurement": "Knock-down ratio (%) 2 minutes after spraying", "setting": "[4]", "value": 100, "unit": "%"}]}]}
